Here are results for 1 molecule from PMC5839409, “Targeting intracellular B2 receptors using novel cell-penetrating antagonists to arrest growth and induce apoptosis in human triple-negative breast cancer” (Oncotarget, 2018).

The subject of assay [1] is MDA-MB-231 cells. Briefly: MTT cytotoxicity (cell viability) assay. As to conditions: MTT assay after 72h drug exposure; means ± s.e.m., n = 6 to 8; read-out: IC50 values (cytocidal activity). Format: cell-based, human. As for the experimental part:
(§1) Cell proliferation assay on MDA-MB-231 cells was determined with colorimetric MTT as we described. Briefly, cells were seeded in a 96 wells plate at 2,000 cells/well in DMEM media supplemented with 10% FBS for 24h at 37°C. Cells were then incubated with and without the B2RAs at the indicated concentrations for the time shown. At the end of treatment period, MTT (0.25 mg/ml) was added to the cells and incubated for 1h30 at 37°C. Thereafter, the cell medium was removed, the formazan product solubilized in acidified isopropanol (100 µl of 1N HCl/anhydrous isopropanol 1:25) and the absorbance determined at 570 nm with an ELISA microplate reader (Spectra Max Plus, Molecular Devices, Sunnyvale, CA). For assessing the cytotoxicity of B2RAs and chemotherapeutic agents (carmustine, doxorubicin, carboplatin, temozolomide and paclitaxel), cells were grown to confluency in multi-well plates and exposed to starving media (DMEM without FBS) for 24h before beginning of the antagonist treatment. Cells were then incubated with MTT and treated exactly as described above. Cell viability was expressed as a percentage of optical density (OD) values obtained upon treatment relative to control.
For orientation: Formazan colour is commonly taken as a measure of viable cells.

For assay [2], the system named is MDA-MB-231 cells. Briefly: Anchorage-dependent clonogenic assay. Conditions: 1 to 100 µM (FR173657 up to 25 µM), 10-14 days. Format: cell-based, human. As for the experimental part: MDA-MB-231 cells were plated at 200 cells/well in a six-well dish in 2 ml DMEM medium containing 10% FBS. […] After 10 to 14 days, colonies were fixed and stained with 0.5% methylene blue in 50% ethanol. Excess of staining solution was removed carefully with tap water and the plates were dried overnight. Colony counting and densitometric analyses (to measure total colony numbers and surface areas) were performed using the Image Pro Plus 5.1 software.

For assay [3], the system named is MDA-MB-231 cells. Briefly: Drug-drug synergy experiments (MTT, combination index). It counts as cell-based, human. As to conditions: IC25 ratios, 72h, CalcuSyn. As for the experimental part:
Interactions (synergy, additive, antagonistic activities) between CP-B2RAs (FR173657 and NG68) and chemotherapeutic drugs (doxorubicin and paclitaxel) were evaluated using MTT standard assays. Twenty-four hours after seeding, cells were treated with CP-B2RAs, the other testing drug, or in combination. For combination testing, CP-B2RAs or the other testing drugs were added to plate in triplicate wells in ratios of IC25 (IC25A: IC25B), and cells are incubated in drug-treated medium for 72h and cell viability determined by MTT. Synergy was determined by calculating combination index (CI) value with the formula CI = (CA,X / ICx,A) + (CB,X / ICx,B), where CA,X and CB,X are concentrations of drug A and drug B used in combination to achieve x% drug effect. ICx,A and ICx,B are concentrations for single agents to achieve the same effect. A CI of less than, equal to, and more than 1 indicates synergy, additivity, and antagonism, respectively.

In assay [4] the test system is MDA-MB-231 cells. Briefly: MTT proliferation assay. It counts as cell-based, human. As to conditions: B2R shRNA knockdown MDA-MB-231 cells vs scrambled shRNA. As for the experimental part: as §1
The subject of assay [5] is MDA-MB-231 cells. Briefly: Western blot of cell cycle, apoptosis and p38 proteins. Format: cell-based, human. As for the experimental part:
For western blot analysis, appropriate amount of cell lysates or membrane and nuclear fractions (25–50 µg protein) were denatured, resolved on 9–12% SDS–PAGE and electrotransferred onto PVDF membranes. Blots were blocked using 5% nonfat dry milk and probed using appropriate primary antibodies in blocking buffer overnight at 4°C.

The target in the next assay is T1, human B2R (Homo sapiens, UniProt P30411).
T1 construct: expressed in transfected cells; host or cells: HEK-293T
T1 sequence (P30411 1-391): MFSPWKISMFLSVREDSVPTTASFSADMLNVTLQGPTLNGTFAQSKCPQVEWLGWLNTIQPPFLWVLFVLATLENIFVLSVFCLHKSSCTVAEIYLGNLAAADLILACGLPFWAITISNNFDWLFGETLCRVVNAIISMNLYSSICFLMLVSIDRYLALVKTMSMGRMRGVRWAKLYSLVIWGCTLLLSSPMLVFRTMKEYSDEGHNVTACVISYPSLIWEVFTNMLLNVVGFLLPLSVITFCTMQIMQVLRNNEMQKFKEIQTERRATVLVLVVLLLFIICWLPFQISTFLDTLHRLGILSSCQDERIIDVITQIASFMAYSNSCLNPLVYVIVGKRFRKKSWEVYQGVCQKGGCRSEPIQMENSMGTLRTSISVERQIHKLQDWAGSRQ
As to conditions: living adherent HEK-293T cells transiently transfected with hB2R; means ± s.e.m.; ref [34]; read-out: Binding hB2R-HEK293T IC50; cited from earlier work.

The target in assay [6] is T2, B2R endogenously expressed in the human de-endothelized umbilical veins (Homo sapiens, UniProt P30411).
T2 construct: B2R endogenously expressed in the human de-endothelized umbilical veins (hUV); from tissue; host or cells: human umbilical vein, de-endothelized
T2 sequence (P30411 1-391): T1 sequence (P30411 1-391)
As to conditions: antagonist, reduction of BK submaximal contraction; means ± s.e.m.; ref [34]; read-out: Bioassay hUV IC50; cited from earlier work.

Where [7] appears, read: 24h treatment, whole-cell lysates.

As a reminder, the IC50 is the concentration needed to halve the response being measured. With `CC(=O)Nc1ccc(/C=C/C(=O)NCC(=O)N(C)c2ccc(Cl)c(COc3cccc4ccc(C)nc34)c2Cl)cn1` [FR 173657], the half-maximal inhibitory concentration (IC50) is 20000 ± 1000 nM in the assay on MDA-MB-231 cells [1], 37 ± 1.6 nM at human B2R and 6 ± 0.8 nM in assay [6]. The “colony formation (antagonist effect)” value in the assay with MDA-MB-231 cells [2] is listed as “concentration-responsive clonal repression”. For the same molecule, the “combination index (CI)” value in the assay on MDA-MB-231 cells [3] (combination with doxorubicin) and in the assay on MDA-MB-231 cells [3] (combination with paclitaxel) was “below 1” throughout. The “cytostatic activity after B2R downregulation” value in the assay on MDA-MB-231 cells [4] is “significantly attenuated”. The “expression of BAD and p27Kip1” value with MDA-MB-231 cells [5] (setting [7]) is “increased expression”. Besides, in the assay on MDA-MB-231 cells [5] (setting [7]), the “levels of MAPK and cyclin A” value was “decreased the levels of MAPK and cyclin A”. Also, in the assay on MDA-MB-231 cells [5] (setting [7]), the “levels of anti-apoptotic protein XIAP” value is given as “appeared to reduce the levels”. For the same molecule, the “phosphorylation of p38” value in the assay on MDA-MB-231 cells [5] (over time) is recorded as “significantly increased the phosphorylation”.
